The source of these data is patent US20240067631A1, “PYRAZOLE DERIVATIVES USEFUL AS NAMPT MODULATORS” (Cytokinetics, Inc., priority 2020, published 2024).

This assay has as its target human NAMPT (Homo sapiens (Human), UniProt P43490). The assay can be described thus: Human recombinant enzyme assay (NMN fluorescence biochemical assay). To be noted: 6 nM human NAMPT, 60 min; for AC1.4 Human: concentration of compound that generates 40% higher activity over basal; for EC50: concentration that gives half-maximal activation. How it is done: Compounds described herein were assayed for their ability to stimulate the synthesis of nicotinamide mononucleotide (NMN) by the enzyme NAMPT. The human recombinant enzyme assay measures the activation of the enzyme activity by compounds using recombinant enzyme and substrates in a buffered cell-free system. The assay conditions closely mimic cellular environments. Dose responses were measured using an assay to detect the formation of nicotinamide mono-nucleotide. All experiments were performed in the 384-well format. Generally, 0.5 μL of DMSO containing varying concentrations of the test compound was mixed with 10 μL of the enzyme reagent solution. Enzyme reactions were initiated with the addition of 10 μL of a solution containing the substrates. The final assay conditions were as follows: 6 nM human NAMPT, 2.5 mM ATP, […] in 50 mM HEPES, pH 7.2, 1 mM DTT, 1 mM CHAPS 50 mM NaCl, 100 mM MgCl2. Following an incubation of 60 min at ambient temperature, 10 μL of 20% acetophenone in DMSO was added, followed by 10 μL of 2 M KOH and 40 μL of formic acid. The plates were read for fluorescence (Excitation/Emission=355 nm/460 nm) using an EnVision plate reader after 40 mins of incubation at ambient temperature. The potency measurements for compounds, are quantified and represented as AC1.4 (the concentration of compounds that generates 40% higher activity over basal) and EC50 (concentration of the compound that gives half-maximal activation).

Chain of human NAMPT (P43490 whole entry): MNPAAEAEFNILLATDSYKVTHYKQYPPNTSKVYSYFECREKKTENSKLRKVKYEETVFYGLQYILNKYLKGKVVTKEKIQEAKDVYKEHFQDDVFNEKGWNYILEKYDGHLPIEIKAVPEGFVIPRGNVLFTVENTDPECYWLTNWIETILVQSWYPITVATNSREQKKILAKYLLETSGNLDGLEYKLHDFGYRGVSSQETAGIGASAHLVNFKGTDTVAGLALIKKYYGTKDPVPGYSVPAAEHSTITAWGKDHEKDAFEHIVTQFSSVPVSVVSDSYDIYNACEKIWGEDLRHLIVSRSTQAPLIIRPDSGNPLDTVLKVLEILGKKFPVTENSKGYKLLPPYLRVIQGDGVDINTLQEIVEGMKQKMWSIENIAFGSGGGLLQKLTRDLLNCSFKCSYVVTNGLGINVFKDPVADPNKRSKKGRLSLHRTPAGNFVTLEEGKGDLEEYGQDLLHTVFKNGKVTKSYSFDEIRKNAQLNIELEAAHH

A word on the EC50: it is the concentration giving half of the maximal effect. As for `COc1cccc([C@@H](C)NC(=O)c2nc(C)c(C)c(NCCc3cn[nH]c3)n2)n1` [Compound 43, (R)-4-((2-(1H-pyrazol-4-yl)ethyl)amino)-N-(1-(6-methoxypyridin-2-yl)ethyl)-5,6-dimethylpyrimidine-2-carboxamide], the “AC1.4 Human” value amounted to 0.273 µM and the EC50 worked out at 0.827 µM.

Regarding `Cc1nc(C(=O)NC(C)c2ccon2)nc(NCCc2cn[nH]c2)c1C` (stereo not shown) [Compound 90, 4-((2-(1H-pyrazol-4-yl)ethyl)amino)-N-(1-(isoxazol-3-yl)ethyl)-5,6-dimethylpyrimidine-2-carboxamide], the “AC1.4 Human” value amounted to 1.17 µM and the EC50 turned out to be 9.24 µM.

As to `Cc1cccc([C@H]2CCCN2C(=O)c2nc(C)c(C)c(NCCc3cn[nH]c3)n2)n1` [Compound 131, (R)-(4-((2-(1H-pyrazol-4-yl)ethyl)amino)-5,6-dimethylpyrimidin-2-yl)(2-(6-methylpyridin-2-yl)pyrrolidin-1-yl)methanone], the “AC1.4 Human” value worked out at 3.487 µM and the EC50 was determined as 10.8 µM.

On to `COc1cccnc1[C@@H](C)NC(=O)c1nc(C)c(C)c(NCCc2cn[nH]c2)n1` [Compound 124, (R)-4-((2-(1H-pyrazol-4-yl)ethyl)amino)-N-(1-(3-methoxypyridin-2-yl)ethyl)-5,6-dimethylpyrimidine-2-carboxamide], for which the “AC1.4 Human” value stood at 2.6905 µM and the EC50 was 12 µM.

As for `Cc1nc(C(=O)N2CCOCC2c2ccc(F)cc2)nc(NCCc2cn[nH]c2)c1C` (stereo not shown) [Compound 67, (4-((2-(1H-pyrazol-4-yl)ethyl)amino)-5,6-dimethylpyrimidin-2-yl)(3-(4-fluorophenyl)morpholino)methanone], the “AC1.4 Human” value came out at 0.505 µM and the half-maximal effective concentration (EC50) amounted to 3.86 µM.

For `Cc1ccc(C(C)NC(=O)c2nc(C)c(C)c(NCCc3cn[nH]c3)n2)s1` (stereo not shown) [Compound 130, 4-((2-(1H-pyrazol-4-yl)ethyl)amino)-5,6-dimethyl-N-(1-(5-methylthiophen-2-yl)ethyl)pyrimidine-2-carboxamide], the “AC1.4 Human” value was 3.2975 µM and the EC50 was 41 µM.

On to `Cc1nc(C(=O)NC(c2cccnc2)C(F)(F)F)nc(NCCc2cn[nH]c2)c1C` (stereo not shown) [Compound 136, 4-((2-(1H-pyrazol-4-yl)ethyl)amino)-5,6-dimethyl-N-(2,2,2-trifluoro-1-(pyridin-3-yl)ethyl)pyrimidine-2-carboxamide], for which the “AC1.4 Human” value is 3.778 µM and the half-maximal effective concentration (EC50) was determined as 50.2 µM.

With `Cc1nc(C(=O)N2CC(O)(Cc3ccccc3)C2)nc(NCCc2cn[nH]c2)c1C` [Compound 60], the “AC1.4 Human” value is 0.4085 µM and the EC50 was determined as 3.75 µM.

For `Cc1nc(C(=O)N[C@H](C)c2ccncc2)nc(NCCc2cn[nH]c2)c1C` [Compound 95, (R)-4-((2-(1H-pyrazol-4-yl)ethyl)amino)-5,6-dimethyl-N-(1-(pyridin-4-yl)ethyl)pyrimidine-2-carboxamide], the “AC1.4 Human” value came to 1.2975 µM and the EC50 amounted to 11 µM.

As for `Cc1nc(C(=O)NCC2(c3cccc(F)c3)COC2)nc(NCCc2cn[nH]c2)c1C` [Compound 74, 4-((2-(1H-pyrazol-4-yl)ethyl)amino)-N-((3-(3-fluorophenyl)oxetan-3-yl)methyl)-5,6-dimethylpyrimidine-2-carboxamide], the “AC1.4 Human” value came to 0.715 µM and the EC50 was 8.01 µM.

Turning to `Cc1nc(C(=O)NCCc2ccncc2F)nc(NCCc2cn[nH]c2)c1C` [Compound 113, 4-((2-(1H-pyrazol-4-yl)ethyl)amino)-N-(2-(3-fluoropyridin-4-yl)ethyl)-5,6-dimethylpyrimidine-2-carboxamide], the “AC1.4 Human” value turned out to be 2.084 µM and the EC50 is 18.3 µM.

Regarding `Cc1nc(C(=O)N2CCOCC2c2ccccc2Cl)nc(NCCc2cn[nH]c2)c1C` (stereo not shown) [Compound 80, (4-((2-(1H-pyrazol-4-yl)ethyl)amino)-5,6-dimethylpyrimidin-2-yl)(3-(2-chlorophenyl)morpholino)methanone], the “AC1.4 Human” value came to 0.877 µM and the EC50 amounted to 10.4 µM.

Regarding `Cc1cc(NCCc2cn[nH]c2)nc(C(=O)N2CCC[C@@H]2c2cccc(F)c2)c1` [Compound 152], the “AC1.4 Human” value came out at 12.6 µM.

As to `Cc1nc(C(=O)N2CCC(O)(c3ccccc3)CC2)nc(NCCc2cn[nH]c2)c1C` [Compound 34, (4-((2-(1H-pyrazol-4-yl)ethyl)amino)-5,6-dimethylpyrimidin-2-yl)(4-hydroxy-4-phenylpiperidin-1-yl)methanone], the “AC1.4 Human” value amounted to 2.839 µM and the EC50 came to 17.7 µM.

On to `Cc1cccc(F)c1NC(=O)c1nc(C)c(C)c(NCCc2cn[nH]c2)n1` [Compound 139, 4-((2-(1H-pyrazol-4-yl)ethyl)amino)-N-(2-fluoro-6-methylphenyl)-5,6-dimethylpyrimidine-2-carboxamide], for which the “AC1.4 Human” value is 3.809 µM and the EC50 is 28.5 µM.

With `Cc1nc(C(=O)N2CC(OC(F)(F)F)C2)nc(NCCc2cn[nH]c2)c1C` [Compound 81, (4-((2-(1H-pyrazol-4-yl)ethyl)amino)-5,6-dimethylpyrimidin-2-yl)(3-(trifluoromethoxy)azetidin-1-yl)methanone], the “AC1.4 Human” value was determined as 0.891 µM and the EC50 was 5.98 µM.

As to `Cc1nc(C(=O)NCc2cccc(F)n2)nc(NCCc2cn[nH]c2)c1C` [Compound 55, 4-((2-(1H-pyrazol-4-yl)ethyl)amino)-N-((6-fluoropyridin-2-yl)methyl)-5,6-dimethylpyrimidine-2-carboxamide], the “AC1.4 Human” value worked out at 0.375 µM and the EC50 was found to be 4.68 µM.

In the case of `CNC(=O)c1nc(C)c(C)c(N(CCc2ccccc2)CCc2cn[nH]c2)n1` [Compound 2, 4-((2-(1H-pyrazol-4-yl)ethyl)(phenethyl)amino)-N,5,6-trimethylpyrimidine-2-carboxamide], the “AC1.4 Human” value was determined as 0.007 µM and the EC50 stood at 0.155 µM.

For the molecule `Cc1nc(C(=O)N2CC[C@H](c3ccccc3)C2)nc(NCCc2cn[nH]c2)c1C` [Compound 52, (R)-(4-((2-(1H-pyrazol-4-yl)ethyl)amino)-5,6-dimethylpyrimidin-2-yl)(3-phenylpyrrolidin-1-yl)methanone], the “AC1.4 Human” value was determined as 0.3305 µM and the EC50 worked out at 1.78 µM.

For the molecule `Cc1nc(C(=O)N2CC(c3cccc(F)c3)C2)nc(NCCc2cn[nH]c2)c1C` [Compound 18, (4-((2-(1H-pyrazol-4-yl)ethyl)amino)-5,6-dimethylpyrimidin-2-yl)(3-(3-fluorophenyl)azetidin-1-yl)methanone], the “AC1.4 Human” value was 0.0745 µM and the concentration giving a half-maximal response (EC50) turned out to be 0.597 µM.

`Cc1nc(C(=O)N2CCC(C#N)(c3ccccc3)CC2)nc(NCCc2cn[nH]c2)c1C` [Compound 96, 1-(4-((2-(1H-pyrazol-4-yl)ethyl)amino)-5,6-dimethylpyrimidine-2-carbonyl)-4-phenylpiperidine-4-carbonitrile]: the “AC1.4 Human” value came out at 1.3075 µM and the EC50 was 8.51 µM.

Regarding `Cc1nc(C(=O)N2C[C@@H](C)OC[C@H]2c2ccccc2)nc(NCCc2cn[nH]c2)c1C` [Compound 62, (4-((2-(1H-pyrazol-4-yl)ethyl)amino)-5,6-dimethylpyrimidin-2-yl)((2R,5R)-2-methyl-5-phenylmorpholino)methanone], the “AC1.4 Human” value was found to be 0.4295 µM and the EC50 was found to be 3.21 µM.
